This is an account of results in publication PMC11344719, “Peptidomimetic inhibitors of the VEGF-A165/NRP-1 complex obtained by modification of the C-terminal arginine” (Amino Acids, 2024).

Square brackets hold non-standard residues; d marks the D form. Ends that are not written are not given here. Peptide text beside a SMILES is read from it. Phe(4-CH2NH2) = NCc1ccc(C[C@H](N)C(=O)O)cc1; hArg = N=C(N)NCCCC[C@H](N)C(=O)O; Cit = NC(=O)NCCC[C@H](N)C(=O)O; Agb = N=C(N)NCC[C@H](N)C(=O)O; Agp = N=C(N)NC[C@H](N)C(=O)O; Dab = NCC[C@H](N)C(=O)O; Dap = NC[C@H](N)C(=O)O A value given as a limit tells only on which side of the number the result lay.

What is called Kd is the constant that tells how readily two partners part at equilibrium. As usually defined, the IC50 is the concentration at which inhibition is half-maximal. For orientation: inhibition means the drop in the measured response relative to a control, in per cent.

One series has as its target NRP1-b1. Also noted: method as in Mota et al. 2018. The conditions noted are these: SPR; ref Mota et al. 2018; cited from earlier work. In general terms: Surface plasmon resonance follows binding to a sensor surface in real time, without labels.
The next series concerns the target T1, VEGF-A165/NRP-1 complex (Homo sapiens, UniProt O14786).
T1 construct: purchased BioLegend (NRP-1); Abcam (biotinylated VEGF-A165)
T1 sequence (O14786 22-641 limits assumed): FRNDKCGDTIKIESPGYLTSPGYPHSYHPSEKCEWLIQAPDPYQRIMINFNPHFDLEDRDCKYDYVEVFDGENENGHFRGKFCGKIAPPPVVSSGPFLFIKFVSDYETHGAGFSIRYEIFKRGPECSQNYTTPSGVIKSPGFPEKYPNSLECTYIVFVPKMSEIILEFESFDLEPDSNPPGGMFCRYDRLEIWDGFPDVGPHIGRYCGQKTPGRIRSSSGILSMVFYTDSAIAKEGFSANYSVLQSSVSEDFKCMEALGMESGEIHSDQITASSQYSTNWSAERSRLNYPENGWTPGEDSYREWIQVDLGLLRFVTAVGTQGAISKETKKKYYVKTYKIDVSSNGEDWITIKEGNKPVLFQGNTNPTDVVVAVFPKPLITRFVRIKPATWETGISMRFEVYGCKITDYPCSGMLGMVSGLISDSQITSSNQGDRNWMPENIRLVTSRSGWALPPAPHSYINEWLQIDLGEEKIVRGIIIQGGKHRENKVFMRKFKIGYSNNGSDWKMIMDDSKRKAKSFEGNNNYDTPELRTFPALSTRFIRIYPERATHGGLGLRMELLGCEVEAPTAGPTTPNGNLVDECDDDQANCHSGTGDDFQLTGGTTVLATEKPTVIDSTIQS
Briefly: competitive ELISA: inhibition of (bt)-VEGF-A165 binding to NRP-1. The conditions noted are these: recombinant human NRP-1; mean ± SD of three independent experiments; tested in the concentrations range 100–3.12 μM. As for the experimental part:
Inhibitory activity of the synthesized peptides was measured by a competitive ELISA test, following a protocol similar to the one previously described (Puszko et al. [2019]). […] Nonspecific binding was blocked with 0.5% BSA (BioShop, Canada) in PBS (Bioshop, Canada). Then, 50 μl peptide in PBS in the selected concentrations and 50 μl (400 ng/ml) human […] VEGF-A165 (Abcam, Cambridge, UK) in PBS containing 4 μg/ml heparin (Bioshop, Canada) were added. After 2 h of incubation at RT, the plate was washed and treated with ECL Streptavidin-Horseradish Peroxidase conjugate (GE Healthcare, Little Chalfont, UK) in PBS (1:100) for 45 min. After the final wash the chemiluminescence was quantified immediately after addition of 100 μl chemiluminescent substrate (SuperSignal ELISA Pico Chemiluminescent Substrate; Pierce Biotechnology, Rockford, IL, USA). Wells incubated with (bt)-VEGF-A165 served as a positive control (P), while wells not-coated with NRP-1 were used as a negative control (NS). […] Half-maximal inhibitory concentration (IC50, [μM]) values (mean ± SD of three independent experiments were determined by nonlinear regression analysis (log(inhibitor) vs. normalized response-variable slope) generated in GraphPad Prism 9.0.0 program (Graph Pad, San Diego, CA, USA). In order to verify the accuracy of the design assumptions, a modified competitive enzyme-linked immunosorbent assay (ELISA) was used to evaluate the inhibitory activity of the designed peptidomimetics against VEGF-A165/NRP-1 complex formation. In addition to the parent compounds (1 and 2), heptapeptide […] was used for the sake of comparison.
In general terms: In an ELISA, binding on a coated surface is turned into a signal by an enzyme label.

On the set-up of series [1]: method as in Tymecka et al. [2018]. The conditions noted are these: ref Tymecka et al. [2018]; cited from earlier work.
The test system of a further series is PAE/NRP1 cells. Also noted: method as in Jarvis et al. 2010. The conditions noted are these: 125I-VEGF, ref Jarvis et al. 2010, cited from earlier work.
For series [2], the system named is recombinant rat NRP-1/Fc chimera. Also noted: method as in Starzec et al. 2007. The following applies: 125I-VEGF, ref Starzec et al. 2007; cited from earlier work.

On to `NC(N)=NCCC[C@H](NC(=O)c1ccccc1)C(=O)O` [Compound D11, Nα-benzoyl-Arg-OH], for which the Kd on NRP1-b1 was 24 µM. Regarding `N=C(N)NCCCC[C@H](NC(=O)[C@@H]1CCCN1C(=O)[C@H](CCN)NC(=O)[C@@H](N)CCCCNC(=O)[C@@H](N)CCCCNC(=N)N)C(=O)O` [Compound 4, Lys(Har)-Dab-Pro-Har] (H-K(hArg)[Dab]P[hArg]-OH), the IC50 at VEGF-A165/NRP-1 complex is 14.3 ± 2.3 µM. Still for that read-out and setting: to `N=C(N)NCCCC[C@H](N)C(=O)NCCCC[C@H](N)C(=O)N[C@@H](CCN)C(=O)N1CCC[C@H]1C(=O)N[C@@H](Cc1ccc(CN)cc1)C(=O)O` [Compound 12, Lys(Har)-Dab-Pro-Phe(4-CH2-NH2)] (H-K(hArg)[Dab]P[Phe(4-CH2NH2)]-OH) belongs 19.8 ± 1.8 µM.

In the case of `NC(N)=NCCC[C@H](NC(=O)OCc1ccccc1)C(=O)O` [Compound D10, Nα-Cbz-Arg-OH], the Kd on NRP1-b1 is 17 µM. As for `N=C(N)NCCCC[C@H](N)C(=O)NCCCC[C@H](N)C(=O)N[C@@H](CCN)C(=O)N1CCC[C@H]1C(=O)N[C@@H](CCCNC(=N)N)C(=O)O` [Compound 2, Lys(Har)-Dab-Pro-Arg] (H-K(hArg)[Dab]PR-OH), the “t½ (stability)” value in series [1] is given as greater than 24 h. Moreover, the IC50 on VEGF-A165/NRP-1 complex is 4.7 ± 0.6 µM. For “Lys-Pro-Ala-Lys (KPAK; printed: Lys-Pro-Ala-Lys) [Compound D8]”, in the series on PAE/NRP1 cells, the “inhibition at 100 μM” value is 22%.

As for KPA[dR] [Compound D7], in the series with PAE/NRP1 cells, the “inhibition at 100 μM” value is listed as 22%. `N=C(N)NCCCC[C@H](N)C(=O)NCCCC[C@H](N)C(=O)N[C@@H](CCN)C(=O)N1CCC[C@H]1C(=O)N[C@@H](CCCNC(N)=O)C(=O)O` [Compound 10, Lys(Har)-Dab-Pro-Cit] (H-K(hArg)[Dab]P[Cit]-OH): at VEGF-A165/NRP-1 complex, the IC50 came to 193 ± 20.6 µM. Consider `N=C(N)NCCCC[C@H](N)C(=O)NCCCC[C@H](N)C(=O)N[C@@H](CCN)C(=O)N1CCC[C@H]1C(=O)N[C@@H](CCNC(=N)N)C(=O)O` [Compound 6, Lys(Har)-Dab-Pro-Agb] (H-K(hArg)[Dab]P[Agb]-OH), for which the IC50 at VEGF-A165/NRP-1 complex was 106 ± 17.4 µM. On the same count and under the same terms, for `N=C(N)NCCCC[C@H](NC(=O)[C@@H]1CCCN1C(=O)[C@H](CN)NC(=O)[C@@H](N)CCCCNC(=O)[C@@H](N)CCCCNC(=N)N)C(=O)O` [Compound 3, Lys(Har)-Dap-Pro-Har] (H-K(hArg)[Dap]P[hArg]-OH) the value was 29.2 ± 1.8 µM; for `N=C(N)NCCCC[C@H](N)C(=O)NCCCC[C@H](N)C(=O)N[C@@H](CCN)C(=O)N1CCC[C@H]1C(=O)N[C@@H](CNC(=N)N)C(=O)O` [Compound 8, Lys(Har)-Dab-Pro-Agp] (H-K(hArg)[Dab]P[Agp]-OH), 165 ± 21.1 µM; for `N=C(N)NCCCC[C@H](N)C(=O)NCCCC[C@H](N)C(=O)N[C@@H](CN)C(=O)N1CCC[C@H]1C(=O)N[C@@H](CCNC(=N)N)C(=O)O` [Compound 5, Lys(Har)-Dap-Pro-Agb] (H-K(hArg)[Dap]P[Agb]-OH), 87.5 ± 10.3 µM. Consider “Ala-Thr-Trp-Leu-Pro-Pro-Lys7 (ATWLPPK; printed: Ala-Thr-Trp-Leu-Pro-Pro-Lys) [Compound D4]”, for which, in series [2], the “inhibition at 100 μM” value is listed as 20%. Regarding “ATWLPPR [Compound A7R, Ala-Thr-Trp-Leu-Pro-Pro-Arg]”, the IC50 at VEGF-A165/NRP-1 complex was found to be 11.3 ± 3.2 µM.

On to `NC(N)=NCCC[C@H](NC(=O)c1sccc1NS(=O)(=O)c1cccc2nsnc12)C(=O)O` [Compound D12], for which, in the series on PAE/NRP1 cells, the “inhibition at 100 μM” value is reported as 99% and the IC50 was 8 µM. `N=C(N)NCCCC[C@H](N)C(=O)NCCCC[C@H](N)C(=O)N[C@@H](CN)C(=O)N1CCC[C@H]1C(=O)N[C@@H](CNC(=N)N)C(=O)O` [Compound 7, Lys(Har)-Dap-Pro-Agp] (H-K(hArg)[Dap]P[Agp]-OH): at VEGF-A165/NRP-1 complex, the IC50 was 148 ± 45.9 µM. As for “Ala-Thr-Trp-Leu-Pro-Pro-Ala7 (ATWLPPA; printed: Ala-Thr-Trp-Leu-Pro-Pro-Ala) [Compound D3]”, the “inhibition at 100 μM” value in series [2] is listed as 17%.

As for “Ala-Thr-Trp-Leu-Pro-Pro6 (ATWLPP; printed: Ala-Thr-Trp-Leu-Pro-Pro) [Compound D2]”, the “inhibition at 100 μM” value in series [2] is given as 18%. Turning to “Lys-Pro-Ala-Arg (KPAR; printed: Lys-Pro-Ala-Arg) [Compound D6]”, in the series with PAE/NRP1 cells, the “inhibition at 100 μM” value is given as 83% and the IC50 is 30 µM.

With `N=C(N)NCCCC[C@H](N)C(=O)NCCCC[C@H](N)C(=O)N[C@@H](CN)C(=O)N1CCC[C@H]1C(=O)N[C@@H](Cc1ccc(CN)cc1)C(=O)O` [Compound 11, Lys(Har)-Dap-Pro-Phe(4-CH2-NH2)] (H-K(hArg)[Dap]P[Phe(4-CH2NH2)]-OH), the IC50 at VEGF-A165/NRP-1 complex was 22.8 ± 5.9 µM. Turning to “Ala-Thr-Trp-Leu-Pro-Pro-Lys7-Ala8 (ATWLPPK; C-terminal Ala8; printed: Ala-Thr-Trp-Leu-Pro-Pro-Lys) [Compound D5]”, the “inhibition at 100 μM” value in series [2] is 18%. Take `CC(C)(C)OC(=O)N[C@@H](CCCN=C(N)N)C(=O)O` [Compound D9, Nα-Boc-Arg-OH]: the Kd at NRP1-b1 was 3 µM. `N=C(N)NCCCC[C@H](N)C(=O)NCCCC[C@H](N)C(=O)N[C@@H](CN)C(=O)N1CCC[C@H]1C(=O)N[C@@H](CCCNC(=N)N)C(=O)O` [Compound 1, Lys(Har)-Dap-Pro-Arg] (H-K(hArg)[Dap]PR-OH): the “t½ (stability)” value in series [1] is reported as greater than 24 h. For the same compound, the IC50 at VEGF-A165/NRP-1 complex came to 8.4 ± 1.6 µM. On to `N=C(N)NCCCC[C@H](N)C(=O)NCCCC[C@H](N)C(=O)N[C@@H](CN)C(=O)N1CCC[C@H]1C(=O)N[C@@H](CCCNC(N)=O)C(=O)O` [Compound 9, Lys(Har)-Dap-Pro-Cit] (H-K(hArg)[Dap]P[Cit]-OH), for which the IC50 on VEGF-A165/NRP-1 complex worked out at 170 ± 55.6 µM.
